# Measured values reported in USRE48335E1, “Polymyxin derivatives as antimicrobial compounds” (priority 2014, dated 2020).
# Positions of bridges follow the written chain, without caps; N, C: chain ends. Non-standard residues stand in square brackets, D forms with d. Residues, ends and D or L forms follow the SMILES beside them. *: point of attachment. X18 = O=C(c1ccc(Cl)c(C(F)(F)F)c1)*; Octanoyl(6-Me) = CCC(C)CCCCC(=O)*; X16 = O=C(c1cc(F)c(F)c(F)c1)*; X14 = Cc1ccc(C(=O)*)cc1C; Dab = NCC[C@H](N)C(=O)O; Abu = CC[C@H](N)C(=O)O; Dap = NC[C@H](N)C(=O)O
# How the values were obtained:
# Acinetobacter baumannii = system: Acinetobacter baumannii
# Summary of the method: (§1)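 Lipopeptide TFA salts are serially diluted in cation-adjusted Mueller-Hinton broth and inoculated per the CLSI M100-S18 broth microdilution method. The MIC is then recorded, with polymyxin B sulphate included as a control.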
# Enterobacter cloacae = system: Enterobacter cloacae
# Summary of the method: as §1
# Klebsiella pneumoniae = system: Klebsiella pneumoniae
# Summary of the method: as §1
# Pseudomonas aeruginosa = system: Pseudomonas aeruginosa
# Summary of the method: as §1
# P. aeruginosa ATCC 27853 = assay: In vivo efficacy in mouse blood infection model (neutropenic Swiss mice); conditions: compound, free base 4 mg/kg intravenously 2 h after inoculation, blood at 4 h
# Summary of the method: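 Activity expressed as Δlog10 CFU/mL blood, treated minus saline control, 4 h after a single 4 mg/kg (free base) i.v. dose given 2 h post-infection. Bloodstream infection from i.v. early log-phase inoculum in Swiss mice made neutropenic by i.p. cyclophosphamide on days −4 (150 mg/kg) and −1 (100 mg/kg).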
compound,measurement,setting,value
CCC(C)CCCCC(=O)N[C@@H](CCN)C(=O)N[C@H](C(=O)N[C@@H](CN)C(=O)N[C@H]1CCNC(=O)[C@H]([C@@H](C)O)NC(=O)[C@H](CCN)NC(=O)[C@H](CCN)NC(=O)[C@H](CC)NC(=O)[C@@H](CC(C)C)NC(=O)[C@H](CCN)NC1=O)[C@@H](C)O (stereo partly drawn) [Compound 139] ({Octanoyl(6-Me)}-[Dab]T[Dap][Dab][Dab][dL][Abu][Dab][Dab]T; lactam 4-C),MIC,Acinetobacter baumannii,0.5 µg/mL
same,"Minimum inhibitory concentration (MIC), Ab ATCC 17978",Acinetobacter baumannii,0.25 µg/mL
same,"Minimum inhibitory concentration (MIC), Ab ATCC 19606",Acinetobacter baumannii,0.5 µg/mL
same,"Minimum inhibitory concentration (MIC), Ab FADDI-AB034",Acinetobacter baumannii,0.25 µg/mL
same,"Minimum inhibitory concentration (MIC), Ec FADDI-EC001",Enterobacter cloacae,0.5 µg/mL
same,"Minimum inhibitory concentration (MIC), Ec FADDI-EC003",Enterobacter cloacae,0.25 µg/mL
same,"Minimum inhibitory concentration (MIC), Ec FADDI-EC006",Enterobacter cloacae,1 µg/mL
same,MIC,Klebsiella pneumoniae,<0.125 µg/mL
same,MIC,Pseudomonas aeruginosa,1 µg/mL
same,"Minimum inhibitory concentration (MIC), Pa ATCC 27853",Pseudomonas aeruginosa,1 µg/mL
same,"Minimum inhibitory concentration (MIC), Pa FADDI-PA022",Pseudomonas aeruginosa,2 µg/mL
same,"Minimum inhibitory concentration (MIC), Pa FADDI-PA025",Pseudomonas aeruginosa,1 µg/mL
same,Δ log (Treated-Control at 4 h),P. aeruginosa ATCC 27853,−3.19 log10 CFU/mL
CC[C@@H]1NC(=O)[C@@H](CC(C)C)NC(=O)[C@H](CCN)NC(=O)[C@@H](NC(=O)[C@H](CN)NC(=O)[C@@H](NC(=O)[C@H](CCN)NC(=O)c2ccc(C)c(C)c2)[C@@H](C)O)CCNC(=O)[C@H]([C@@H](C)O)NC(=O)[C@H](CCN)NC(=O)[C@H](CCN)NC1=O [Compound 83] (X14-[Dab]T[Dap][Dab][Dab][dL][Abu][Dab][Dab]T; lactam 4-C),MIC,Acinetobacter baumannii,2 µg/mL
same,"Minimum inhibitory concentration, Ab A ATCC 17978",Acinetobacter baumannii,1 µg/mL
same,"Minimum inhibitory concentration, Ab ATCC 19606",Acinetobacter baumannii,2 µg/mL
same,"Minimum inhibitory concentration, Ab FADDI-AB034",Acinetobacter baumannii,0.5 µg/mL
same,"Minimum inhibitory concentration, Ec FADDI-EC001",Enterobacter cloacae,0.25 µg/mL
same,"Minimum inhibitory concentration, Ec FADDI-EC003",Enterobacter cloacae,0.25 µg/mL
same,"Minimum inhibitory concentration, Ec FADDI-EC006",Enterobacter cloacae,0.25 µg/mL
same,MIC,Klebsiella pneumoniae,0.25 µg/mL
same,MIC,Pseudomonas aeruginosa,1 µg/mL
same,"Minimum inhibitory concentration, Pa ATCC 27853",Pseudomonas aeruginosa,1 µg/mL
same,"Minimum inhibitory concentration, Pa FADDI-PA022",Pseudomonas aeruginosa,1 µg/mL
same,"Minimum inhibitory concentration, Pa FADDI-PA025",Pseudomonas aeruginosa,2 µg/mL
same,Δ log (Treated-Control at 4 h),P. aeruginosa ATCC 27853,−3.63 log10 CFU/mL
CC[C@@H]1NC(=O)[C@@H](CC(C)C)NC(=O)[C@H](CCN)NC(=O)[C@@H](NC(=O)[C@H](CN)NC(=O)[C@@H](NC(=O)[C@H](CCN)NC(=O)c2cc(F)c(F)c(F)c2)[C@@H](C)O)CCNC(=O)[C@H]([C@@H](C)O)NC(=O)[C@H](CCN)NC(=O)[C@H](CCN)NC1=O [Compound 133] (X16-[Dab]T[Dap][Dab][Dab][dL][Abu][Dab][Dab]T; lactam 4-C; N-terminus assumed),MIC,Acinetobacter baumannii,2 µg/mL
same,"Minimum inhibitory concentration, Ab A ATCC 17978",Acinetobacter baumannii,0.5 µg/mL
same,"Minimum inhibitory concentration, Ab ATCC 19606",Acinetobacter baumannii,2 µg/mL
same,"Minimum inhibitory concentration, Ab FADDI-AB034",Acinetobacter baumannii,0.25 µg/mL
same,"Minimum inhibitory concentration, Ec FADDI-EC001",Enterobacter cloacae,0.5 µg/mL
same,"Minimum inhibitory concentration, Ec FADDI-EC003",Enterobacter cloacae,0.25 µg/mL
same,"Minimum inhibitory concentration, Ec FADDI-EC006",Enterobacter cloacae,0.25 µg/mL
same,MIC,Klebsiella pneumoniae,0.25 µg/mL
same,MIC,Pseudomonas aeruginosa,0.5 µg/mL
same,"Minimum inhibitory concentration, Pa ATCC 27853",Pseudomonas aeruginosa,0.5 µg/mL
same,"Minimum inhibitory concentration, Pa FADDI-PA022",Pseudomonas aeruginosa,0.5 µg/mL
same,"Minimum inhibitory concentration, Pa FADDI-PA025",Pseudomonas aeruginosa,2 µg/mL
same,Δ log (Treated-Control at 4 h),P. aeruginosa ATCC 27853,−3.23 log10 CFU/mL
CC[C@@H]1NC(=O)[C@@H](CC(C)C)NC(=O)[C@H](CCN)NC(=O)[C@@H](NC(=O)[C@H](CN)NC(=O)[C@@H](NC(=O)[C@H](CCN)NC(=O)c2ccc(Cl)c(C(F)(F)F)c2)[C@@H](C)O)CCNC(=O)[C@H]([C@@H](C)O)NC(=O)[C@H](CCN)NC(=O)[C@H](CCN)NC1=O [Compound 112] (X18-[Dab]T[Dap][Dab][Dab][dL][Abu][Dab][Dab]T; lactam 4-C),MIC,Acinetobacter baumannii,0.25 µg/mL
same,"Minimum inhibitory concentration, Ab A ATCC 17978",Acinetobacter baumannii,<0.125 µg/mL
same,"Minimum inhibitory concentration, Ab ATCC 19606",Acinetobacter baumannii,0.25 µg/mL
same,"Minimum inhibitory concentration, Ab FADDI-AB034",Acinetobacter baumannii,0.25 µg/mL
same,"Minimum inhibitory concentration, Ec FADDI-EC001",Enterobacter cloacae,0.5 µg/mL
same,"Minimum inhibitory concentration, Ec FADDI-EC003",Enterobacter cloacae,0.25 µg/mL
same,"Minimum inhibitory concentration, Ec FADDI-EC006",Enterobacter cloacae,0.5 µg/mL
same,MIC,Klebsiella pneumoniae,0.5 µg/mL
same,MIC,Pseudomonas aeruginosa,0.5 µg/mL
same,"Minimum inhibitory concentration, Pa ATCC 27853",Pseudomonas aeruginosa,0.5 µg/mL
same,"Minimum inhibitory concentration, Pa FADDI-PA022",Pseudomonas aeruginosa,0.5 µg/mL
same,"Minimum inhibitory concentration, Pa FADDI-PA025",Pseudomonas aeruginosa,1 µg/mL
same,Δ log (Treated-Control at 4 h),P. aeruginosa ATCC 27853,−3.15 log10 CFU/mL
